In ChEMBL document CHEMBL1145659, “The alkaloids of Corydalis meifolia” (J Nat Prod, 1983) one finds Activity and IC50 data, which are given here for four compounds.

In brackets after ≈: the same amount, converted by molar mass.

One may read the IC50 as the concentration that inhibits the measured activity by half.

For assay [1], the system named is Ileum. Nature of the assay: Spasmolytic activity in isolated guinea pig ileum assessed as spasmogen-induced inhibition of smooth muscle contraction. As to conditions: Cavia porcellus. Format: functional, tissue-based.
The test system of assay [2] is Ileum. In words: (§1) Spasmolytic activity in isolated guinea pig ileum assessed as spasmogen-induced inhibition of smooth muscle contraction at 10 ug. Format: functional, Cavia porcellus. Details: scale not given: the % may be the effect or the level left.
In assay [3] the test system is Ileum. The description is as §1. The format is functional, Cavia porcellus. On the set-up: scale not given: the % may be the effect or the level left. This is another data set of the same source.

Consider `COc1cc2c(cc1OC)[C@@H]([C@H]1OC(=O)c3c1ccc1c3OCO1)N(C)CC2` [CORLUMINE], for which the Activity entry with Ileum [1] was “Dose-dependent effect”; in the assay on Ileum [2], 0%; in the assay on Ileum [3], 50%.
As for `COc1cc2c(cc1OC)C1(C(=O)c3ccc4c(c3[C@H]1O)OCO4)N(C)CC2` (stereo partly drawn) [YENHUSOMIDINE], the Activity result in the assay with Ileum [1] was “Dose-dependent effect”; in the assay on Ileum [2], 17%; in the assay on Ileum [3] it was 52%. For the same compound, the IC50 with Ileum [1] worked out at 0.5 µg/mL (≈ 1.3 µM).
`COc1cc2c(cc1OC)-c1c(C)c3ccc4c(c3c[n+]1CC2)OCO4.[Cl-]` [DEHYDROCAVIDINE]: the figures for the Activity result with Ileum [1], in the assay on Ileum [2] and with Ileum [3] were “Dose-dependent effect”, 20% and 40%, respectively.
Regarding `COc1cc2c(cc1OC)[C@H]1[C@@H](C)c3ccc4c(c3CN1CC2)OCO4` [CAVIDINE], the Activity entry is “Dose-dependent effect” in the assay on Ileum [1], 84% in the assay on Ileum [2] and 100% with Ileum [3].
